Reference: patent EP3294317B1, “ENHANCED ANTIBIOTIC COMPOSITION” (Universitat Autònoma de Barcelona, priority 2015, dated 2016)

Legend:
[1] = test system: S. maltophilia OC323; test: Colistin broth microdilution MIC with compound of formula I prepared in methanol or DMSO (Example 6); type: cell-based, Stenotrophomonas maltophilia; details: MIC in the presence of 1.0% DMSO / MIC in the presence of 0.1 mM of compound of formula I and 1.0% DMSO
Method: (§1) The potentiator effect of the compound of the invention in a new formulation was tested by using colistin sulphate as antibiotic in combination with the enhancer compound of formula I in front of resistant clinical isolates. […]
(§2) Tests were performed to determine the potentiator effect of the compound of the invention with two colistin resistant S. maltophilia strains as shown in Table 9. S. maltophilia K279a is a reference clinical strain. The origin of clinical strain OC323 together with K279a has been described previously (Huedo et al., Two Different rpf Clusters Distributed among a Population of Stenotrophomonas maltophilia Clinical Strains Display Differential Diffusible Signal Factor Production and Virulence Regulation, J. Bacteriol., 2014, 196, 2431-2442).
(§3) Selected compound of formula I was first dissolved in 100% of Methanol (HPLC Gradient Grade CHROMASOLV. Sigma, 34885-1L-R) to 10 mM. The compound was fairly soluble in methanol up to 10 mM and required vigorous vortex.
(§4) […] MICs were determined as described in the Example 1.
(§5) Strains colistin minimal inhibitory concentration (MIC), expressed in µg/mL, and the fold increase in bacterial susceptibility to colistin when combined with the potentiator compound previously dissolved in methanol ([…]) are shown in Table 9: TABLE 9

[2] = test system: S. maltophilia K279a; test: as above; type: cell-based, Stenotrophomonas maltophilia; details: MIC in the presence of 1.0% DMSO / MIC in the presence of 0.1 mM of compound of formula I and 1.0% DMSO
Method: as §1, §2, §3, §4, §5

[3] = test system: A. baumannii 6963; test: Colistin broth microdilution MIC with potentiator compounds, resistant clinical isolates (Example 3); type: cell-based, Acinetobacter baumannii; details: MIC in the presence of 1.0% DMSO / MIC in the presence of 0.1 mM compound and 1.0% DMSO, positive = increased susceptibility, 1 = no effect
[4] = test system: S. maltophilia D457; test: as above; type: cell-based, Stenotrophomonas maltophilia; details: MIC in the presence of 1.0% DMSO / MIC in the presence of 0.1 mM compound and 1.0% DMSO, positive = increased susceptibility, 1 = no effect
Method: (§6) The potentiator effect of the compound of the invention and other compounds disclosed herein was tested using colistin sulfate as antibiotic and in combination with the enhancer compounds in front of resistant clinical isolates.
(§7) Tests were performed to determine the potentiator effect of the compound of the invention and other compounds disclosed herein with multidrug-resistant S. maltophilia and A. baumannii clinical strains as shown in Table 5: TABLE 5
(§8) For this experiment the potentiator compound was added to a colistin broth microdilution assay at a final concentration of 0.1mM. MICs were determined as described in the Example 1.
(§9) Colistin minimal inhibitory concentration (MIC), expressed in µg/mL, and the fold increase in bacterial susceptibility to colistin when combined with the potentiator compound (expressed as MIC in the presence of 1.0% DMSO / MIC in the presence of 0.1 mM of each potentiator compound and 1.0% DMSO) are shown in Table 6: […]

[5] = test system: S. maltophilia M30; test: as above; type: cell-based, Stenotrophomonas maltophilia
Method: as §6, §7, §8, §9

[6] = test system: S. maltophilia 257; test: as above; type: cell-based, Stenotrophomonas maltophilia; details: MIC in the presence of 1.0% DMSO / MIC in the presence of 0.1 mM compound and 1.0% DMSO, positive = increased susceptibility, 1 = no effect
Method: as §6, §7, §8, §9

[7] = test system: S. maltophilia 197; test: as above; type: cell-based, Stenotrophomonas maltophilia
Method: as §6, §7, §8, §9

[8] = test system: S. maltophilia 53149; test: as above; type: cell-based, Stenotrophomonas maltophilia; details: MIC in the presence of 1.0% DMSO / MIC in the presence of 0.1 mM compound and 1.0% DMSO, positive = increased susceptibility, 1 = no effect
Method: as §6, §7, §8, §9

[9] = test system: Acinetobacter baumannii ATCC 15308; test: Colistin broth microdilution MIC with potentiator compounds (Example 1); type: cell-based; details: A. baumannii ATCC 15308; MIC in the presence of 1.0% DMSO / MIC in the presence of 0.1 mM potentiator compound and 1.0% DMSO; positive = increased, negative = decreased susceptibility, 1 = no effect
[10] = test system: P. aeruginosa ATCC 27853; test: Broth microdilution MIC of other antibiotics with potentiator compounds (Example 2); type: cell-based, Pseudomonas aeruginosa; details: any of ciprofloxacin, amikacin, levofloxacin, tigecycline, imipenem, TMP/SMX (1:19), 0.1 mM potentiator, 1.0% DMSO, 'none' = no antibiotic potentiated
Method: (§10) Following the procedure of Example 1, ciprofloxacin, amikacin, levofloxacin, tigecycline, imipenem and the combination trimethoprim/sulfamethoxasole (1:19) were tested. All were purchased from Sigma-Aldrich Co.
(§11) Minimal inhibitory concentration (MIC) of the antibiotic or the test combinations were determined by the broth microdilution method.
(§12) Antibiotic stock solutions were prepared according to CLSI recommendations and sterilizing by passage through 0.20 µm filters.
(§13) Antimicrobial susceptibility testing of these isolates was performed using the broth microdilution (BMD) method, according to CLSI guidelines.
(§14) The fold increase in bacterial susceptibility to antibiotics when combined with the potentiator compound (expressed as MIC in the presence of 1.0% DMSO / MIC in the presence of 0.1 mM of each potentiator compound and 1.0% DMSO) are shown in Table 4: […]

[11] = test system: A. baumannii ATCC 15308; test: as above; type: cell-based, Acinetobacter baumannii
Method: as §10, §11, §12, §13, §14

[12] = Solubility of the stock solution in methanol; type: physicochemical; details: organic solvent or mixture; 100% Methanol; fairly soluble, required vigorous vortex
Method: as §3

[13] = test system: A. baumannii 6799; test: Broth microdilution MIC of other antibiotics with potentiator compounds, clinical isolates (Example 4); type: cell-based, Acinetobacter baumannii
Method: (§15) Following the procedure of Example 3, ciprofloxacin, amikacin, levofloxacin, imipenem and the combination trimethoprim/sulfamethoxasole (1:19) were tested. All were purchased from Sigma-Aldrich Co.
as §11, §12, §13
(§16) The fold increase in bacterial susceptibility to antibiotics when combined with the potentiator compound (expressed as MIC in the presence of 1.0% DMSO / MIC in the presence of 0.1 mM of each potentiator compound and 1.0% DMSO) are shown in Table 7: […]

[14] = test system: Pseudomonas aeruginosa PAO1; test: Colistin broth microdilution MIC with potentiator compounds (Example 1); type: cell-based; details: P. aeruginosa PAO1; MIC in the presence of 1.0% DMSO / MIC in the presence of 0.1 mM potentiator compound and 1.0% DMSO; positive = increased, negative = decreased susceptibility, 1 = no effect
[15] = test system: Escherichia coli ATCC 25922; test: as above; type: cell-based; details: E. coli ATCC 25922; MIC in the presence of 1.0% DMSO / MIC in the presence of 0.1 mM potentiator compound and 1.0% DMSO; positive = increased, negative = decreased susceptibility, 1 = no effect
[16] = test system: S. maltophilia 257; test: Broth microdilution MIC of other antibiotics with potentiator compounds, clinical isolates (Example 4); type: cell-based, Stenotrophomonas maltophilia; details: MIC in 1.0% DMSO / MIC with 0.1 mM compound and 1.0% DMSO
Method: as §15, §11, §12, §13, §16

[17] = MIC in the presence of 1.0% DMSO / MIC in the presence of 0.1 mM compound and 1.0% DMSO, positive = increased susceptibility, 1 = no effect
[18] = MIC in 1.0% DMSO / MIC with 0.1 mM potentiator compound and 1.0% DMSO
[19] = MIC in 1.0% DMSO / MIC with 0.1 mM compound and 1.0% DMSO

With `CN(C)CCNC(=O)c1cccc(CNC(=O)Nc2ccc3c(c2)Cc2ccccc2-3)c1` [I, N-[2-(dimethylamino)ethyl]-3-[(9H-fluoren-2-ylcarbamoylamino)methyl]benzamide] the “Fold increase in bacterial susceptibility to colistin” value (“Fold increase … to colistin” for short) [1] was “+4 fold”, the “Fold increase … to colistin” value [2] was “+4 fold” and the “Fold increase … to colistin” value [3] was greater than 4 fold. The “Fold increase … to colistin” value [4] was “+2 fold”, the “Colistin susceptibility category according to the CLSI criteria in the presence of the compound” value ([5]; 0.1 mM compound) was “become sensitive to colistin” and the “Fold increase … to colistin” value [5, 17] was “+8 fold”. The “Fold increase … to colistin” value [6] was “+4 fold”, the “Colistin susceptibility category according to the CLSI criteria in the presence of the compound” value ([7]; 0.1 mM compound) was “become sensitive to colistin” and the “Fold increase … to colistin” value [7, 17] was “+32 fold”. The “Fold increase … to colistin” value [8] was “+4 fold”, the “Fold increase … to colistin” value [9] was “+4 fold” and the “Fold increase in bacterial susceptibility to antibiotic indicated” value [10] was “none”. For the same molecule, the “Fold increase in bacterial susceptibility to Imipenem” value [11, 18] was 2 fold, the “Fold increase in bacterial susceptibility to Levofloxacin” value (“Fold increase … to Levofloxacin” below) [11, 18] was 4 fold and the “Fold increase in bacterial susceptibility to Tigecycline” value [11, 18] was 2 fold. For the same molecule, the “Fold increase in bacterial susceptibility to TMP/SMX” value ([11]; Trimethoprim:sulfamethoxazole 1:19, MIC in 1.0% DMSO / MIC with 0.1 mM potentiator compound and 1.0% DMSO) was 4 fold, the solubility [12] was no more than 10 mM and the “Fold increase in bacterial susceptibility to Amikacin” value [13, 19] was 2 fold. For the same molecule, the “Fold increase in bacterial susceptibility to Ciprofloxacin” value [13, 19] was 8 fold, the “Fold increase in bacterial susceptibility to Imipenem” value [13, 19] was 4 fold and the “Fold increase … to Levofloxacin” value [13, 19] was 2 fold. The “Fold increase in bacterial susceptibility to TMP/SMX” value ([13]; Trimethoprim:sulfamethoxazole 1:19, MIC in 1.0% DMSO / MIC with 0.1 mM compound and 1.0% DMSO) was 2 fold, the “Fold increase … to colistin” value [14] was “+2 fold” and the “Fold increase … to colistin” value [15] was “+2 fold”. The “Fold increase … to Levofloxacin” value [16] was “Levofloxacin (2) fold”.
